Series [1] deals with Luc+ expression. In words: Dual luciferase in muscle after iliac artery delivery of plasmids and siRNA. The format is in vivo, rats. Conditions: 5.0 μg siRNA, four days, compared to control siRNA-ori. The procedure:
Inhibition of Luciferase expression by siRNA is gene specific and siRNA specific in muscle in vivo after arterial delivery. 10 μg pGL3 control and 1 μg pRL-SV40 with 5.0 μg siRNA-luc+ or 5.0 siRNA-ori were injected into iliac artery of rats under increased pressure. Specifically, animals were anesthetized and the surgical field shaved and prepped with an antiseptic. The animals were placed on a heating pad to prevent loss of body heat during the surgical procedure. A midline abdominal incision will be made after which skin flaps were folded away and held with clamps to expose the target area. A moist gauze was applied to prevent excessive drying of internal organs. Intestines were moved to visualize the iliac veins and arteries. Microvessel clips were placed on the external iliac, caudal epigastric, internal iliac, deferent duct, and gluteal arteries and veins to block both outflow and inflow of the blood to the leg. An efflux enhancer solution (e.g., 0.5 mg papaverine in 3 ml saline) was injected into the external iliac artery though a 25 g needle, followed by the plasmid DNA and siRNA containing solution (in 10 ml saline) 1-10 minutes later. The solution was injected in approximately 10 seconds. The microvessel clips were removed 2 minutes after the injection and bleeding was controlled with pressure and gel foam. The abdominal muscles and skin were closed with 4-0 dexon suture. […]

The test system of series [2] is Luc+ expression. The series is described as follows: Dual luciferase in liver after bile duct delivery of plasmids and siRNA. The format is in vivo, mice. Conditions: 5.0 μg siRNA, bile duct injection, one day, compared to control siRNA-ori. How it is done: Inhibition of Luciferase expression by siRNA is gene specific and siRNA specific in liver after bile duct delivery in vivo. 10 μg pGL3 control and 1 μg pRL-SV40 with 5.0 μg siRNA-luc+ or 5.0 siRNA-ori were injected into the bile duct of mice. A total volume of 1 ml in Ringer's buffer was delivered at 6 ml/min. […] One day after injection, the liver was harvested and homogenized as described in Example 1. Luc+ and Renilla Luc activities were assayed using the Dual Luciferase Reporter Assay System (Promega). Ratios of Luc+ to Renilla Luc were normalized to the siRNA-ori control. siRNA-Luc+ inhibited Luc+ expression in liver by 88% compared to the control siRNA-ori.

Series [3] relates to Luc+ expression. In words: In vivo delivery of siRNA to mouse liver cells using TransIT In Vivo, dual luciferase. The arrangement: species or system ICR mice. Conditions: for % inhibition of Luc+ expression: normalized to no siRNA control. The procedure:
In vivo delivery of siRNA to mouse liver cells using TransIT™ In Vivo. 10 μg pGL3 control and 1 μg pRL-SV40 were complexed with 11 μl TransIT™ In Vivo in 2.5 ml total volume according the manufacturer's recommendation (Mirus Corporation, Madison, Wis.). For siRNA delivery, 10 μg pGL3 control, 1 μg pRL-SV40, and either 5 μg siRNA-Luc+ or 5 μg control siRNA were complexed with 16 μl TransIT™ In vivo in 2.5 ml total volume. Particles were injected over ˜7 s into the tail vein of 25-30 g ICR mice as described in Example 1. One day after injection, the livers were harvested and homogenized as described in Example 1. Luc+ and Renilla Luc activities were assayed using the Dual Luciferase Reporter Assay System (Promega).

Series [4] deals with Luc+ expression. The series is described as follows: Dual luciferase (pGL3 control + pRL-SV40) co-injected with siRNA, increased-pressure tail vein injection, organs assayed. The format is in vivo, mice. Conditions: one day; for inhibition of target Luc+ expression (Luc+/Renilla Luc ratio): liver, normalized to no siRNA control. How it is done: Inhibition of Luciferase expression by siRNA is gene specific in liver in vivo. Two plasmids were injected simultaneously either with or without siRNA-luc+ as described in Example 1. The first plasmid, pGL3 control (Promega Corp, Madison, Wis.), contains the luc+ coding region and a chimeric intron under transcriptional control of the simian virus 40 enhancer and early promoter region. The second, pRL-SV40, contains the coding region for the Renilla reniformis luciferase under transcriptional control of the Simian virus 40 enhancer and early promoter region.
10 μg pGL3 control and 1 μg pRL-SV40 was injected as described in Example 1 with 0, 0.5 or 5.0 μg siRNA-luc+. One day after injection, the livers were harvested and homogenized as described in Example 1. Luc+ and Renilla Luc activities were assayed using the Dual Luciferase Reporter Assay System (Promega).
Inhibition of Luciferase expression by siRNA is gene specific and siRNA specific in liver in vivo. 10 μg pGL3 control and 1 μg pRL-SV40 were injected as described in Example 1 with either 5.0 μg siRNA-luc+ or 5.0 control siRNA-ori. One day after injection, the livers were harvested and homogenized as described in Example 1. Luc+ and Renilla Luc activities were assayed using the Dual Luciferase Reporter Assay System (Promega). Ratios of Luc+ to Renilla Luc were normalized to the siRNA-ori control. siRNA-Luc+ inhibited Luc+ expression in liver by 93% compared to siRNA-ori indicating inhibition by siRNAs is sequence specific in this organ.
In vivo delivery of siRNA by increased-pressure intravascular injection results in strong inhibition of target gene expression in a variety of organs. 10 μg pGL3 Control and 1 μg pRL-SV40 were co-injected with 5 μg siRNA-Luc+ or 5 μg control siRNA (siRNA-ori) targeted to sequence in the plasmid backbone as in example 1. One day after injection, organs were harvested and homogenized and the extracts assayed for target firefly luciferase+ activity and control Renilla luciferase activity. Firefly luciferase+activity was normalized to that Renilla luciferase activity in order to compensate for differences in transfection efficiency between animals.

Where [5] appears, read: 5 μg siRNA with TransIT In Vivo, liver, one day.
Setting [6] is: Example 4: 5 μg siRNA, compared to control siRNA-ori.

d = 2'-deoxy (DNA); r = 2'-OH (RNA)

Turning to “siRNA-luc+: annealed oligomers SEQ ID 4 and SEQ ID 5 containing luc+ coding sequence, positions 155-173 of the luc+ reading frame (chain 1 CUUACGCUGAGUACUUCGATT; chain 2 UCGAAGUACUCAGCGUAAGTT; sugars from the 5' end r19 d2, backbone not given here; listed as Photinus pyralis)”, in the series on Luc+ expression [1], the “inhibition of Luc+ expression in gastrocnemius” value is on record as 92% and the “inhibition of Luc+ expression in quadriceps” value is recorded as 85%. For the same substance, in the series with Luc+ expression [2], the “inhibition of Luc+ expression in liver” value is 88%. For the same substance, in the series with Luc+ expression [3] (setting [5]), the “Luciferase expression (RLUs)” value is recorded as 853332 RLUs and the “Renilla expression (RLUs)” value is on record as 4124726 RLUs. In the series with Luc+ expression [3] (5 μg siRNA with TransIT In Vivo), the “% inhibition of Luc+ expression” value came to 96%. Further, in the series with Luc+ expression [3] (5 μg siRNA with TransIT In Vivo, listed as siRNA-Luc+), the “% inhibition of Luc+ expression” value stood at 96.0%. The “relative LUC+ expression” value in the series on Luc+ expression [3] (Luc+ to Renilla Luc ratio, liver, one day) is 0.2069. Besides, the “inhibition of target Luc+ expression (Luc+/Renilla Luc ratio)” value in the series with Luc+ expression [4] (0.5 μg co-injected siRNA) turned out to be 73%. For the same substance, the “inhibition of target Luc+ expression (Luc+/Renilla Luc ratio)” value in the series on Luc+ expression [4] (5.0 μg co-injected siRNA) was found to be 82%. Moreover, in the series on Luc+ expression [4] (Example 3: 5.0 μg siRNA, compared to siRNA-ori), the “inhibition of Luc+ expression in liver” value amounted to 93%. Further, in the series on Luc+ expression [4] (setting [6]), the “inhibition of firefly luciferase+ activity, heart” value worked out at 74%; the “inhibition of firefly luciferase+ activity, kidney” value is 87%; the “inhibition of firefly luciferase+ activity, liver” value is 95%; the “inhibition of firefly luciferase+ activity, lung” value came to 81%. In addition, in the series on Luc+ expression [4] (setting [6]), the “inhibition of firefly luciferase+ activity, pancreas” value is listed as 92% and the “inhibition of firefly luciferase+ activity, spleen” value was 77%.
